Assay results from US10273217B2, “Triazole derivatives” (Hoffmann-La Roche Inc., priority 2015, dated 2019).

Assays:
human EAAT3 = biological target: T1, human EAAT3 (Homo sapiens, UniProt P43005); assay: FLIPR Membrane Potential (FMP) assay, antagonist potency at human EAAT3; format: cell-based; conditions: HEK-293 cells stably expressing human EAAT3; L-glutamate as agonist at EC80; Kb from IC50 by Cheng-Prusoff equation
T1 construct: expressed in transfected cells
T1 sequence (P43005 1-524): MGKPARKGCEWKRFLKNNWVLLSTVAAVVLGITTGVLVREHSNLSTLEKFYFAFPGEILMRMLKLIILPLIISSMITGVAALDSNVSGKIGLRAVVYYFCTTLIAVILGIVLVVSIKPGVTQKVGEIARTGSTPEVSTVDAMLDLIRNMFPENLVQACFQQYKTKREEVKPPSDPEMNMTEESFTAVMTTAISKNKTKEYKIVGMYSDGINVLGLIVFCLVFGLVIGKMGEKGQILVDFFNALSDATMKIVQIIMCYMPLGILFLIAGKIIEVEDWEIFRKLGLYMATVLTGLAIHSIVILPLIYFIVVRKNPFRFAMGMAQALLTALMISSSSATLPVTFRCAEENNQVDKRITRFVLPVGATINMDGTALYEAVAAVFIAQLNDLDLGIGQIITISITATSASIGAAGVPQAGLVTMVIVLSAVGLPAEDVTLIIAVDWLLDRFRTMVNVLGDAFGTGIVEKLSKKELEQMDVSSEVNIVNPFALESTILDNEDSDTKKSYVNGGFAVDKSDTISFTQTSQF
Protocol: The FLIPR Membrane Potential (FMP) Assay
HEK-293 cells stably expressing human EAAT3 were seeded at 55 000 cells/well in growth medium (DMEM glutamate free (Invitrogen 11960-044), 1% Pen Strep (10 ml/l GIBCO BRL N°15140-023), 10% FCS non dialysed heat inactivated, 5 mg/l puromycin) in poly-D-lysine treated 96-well black microtiter plates with clear-bottom. After 24 h, the growth medium was removed and 100 μl/well of Krebs buffer (140 mM NaCl, 4.7 mM KCl, 2.5 mM CaCl2, 1.2 mM MgCl2, 11 mM HEPES, 10 mM D-glucose, pH=7.4) added. The cells were then loaded by adding 100 μl/well FMP assay dye (FLIPR Membrane Potential assay reagent, Molecular Devices). The 96-well plates were then incubated at 37° C. for 1 h. The depolarization of the cells will cause more dye to enter in the cells, where it will bind to intracellular proteins and lipids and cause an increase in the fluorescence signal. Antagonist potency at human EAAT3 was determined by using L-glutamate as agonist at a concentration which gives 80% of the maximum response. The antagonists were applied 15 min before the application of the agonist L-glutamate. The assays were performed at room temperature and measurements done by using a Fluorometric Imaging Plate Reader (FLIPR, Molecular Devices) and filter #2. Responses were measured as peak increase in fluorescence minus basal (i.e. fluorescence without addition of L-glutamate). Kb was determined using the Cheng-Prusoff equation Kb=IC50/[1+(A/EC50)], where IC50 is the concentration of the antagonist producing 50% inhibition, A is the concentration of the agonist against which the IC50 is being determined (at EC80) and EC50 is the concentration of the agonist producing 50% […].

| Structure (SMILES) | Kb (human EAAT3) | melting point |
| --- | --- | --- |
| CC(C)(C)NC(=O)c1cc(-c2ccc(Cl)cc2)cc(-n2cnnc2C(C)(C)O)c1 [Example 27, N-tert-Butyl-3-(4-chlorophenyl)-5-[3-(2-hydroxypropan-2-yl)-1,2,4-triazol-4-yl]-benzamide] | 64 nM | 163 °C |
| CC(C)c1nncn1-c1cc(C(=O)NC(C)(C)C)cc(-c2ccc(F)c(F)c2)c1 [Example 28, N-tert-Butyl-3-(3,4-difluorophenyl)-5-(3-propan-2-yl-1,2,4-triazol-4-yl)-benzamide] | 160 nM | 115 °C |
| COc1ccc(-c2cc(C(=O)NC(C)(C)C)cc(-n3cnnc3C(C)C)c2)cc1 [Example 29, N-tert-Butyl-3-(4-methoxyphenyl)-5-(3-propan-2-yl-1,2,4-triazol-4-yl)-benzamide] | 290 nM | 107 °C |
| CC(C)c1nncn1-c1cc(C(=O)NC(C)(C)C)cc(-c2ccc(Cl)c(F)c2)c1 [Example 30, N-tert-Butyl-3-(4-chloro-3-fluorophenyl)-5-(3-propan-2-yl-1,2,4-triazol-4-yl)-benzamide] | 100 nM | 135 °C |
| Cc1cc(-c2cc(C(=O)NC(C)(C)C)cc(-n3cnnc3C(C)C)c2)ccc1F [Example 31, N-tert-Butyl-3-(4-fluoro-3-methyl-phenyl)-5-(3-propan-2-yl-1,2,4-triazol-4-yl)-benzamide] | 98 nM | 106 °C |
| Cc1ccc(-c2cc(C(=O)NC(C)(C)C)cc(-n3cnnc3C(C)C)c2)cc1F [Example 32, N-tert-Butyl-3-(3-fluoro-4-methyl-phenyl)-5-(3-propan-2-yl-1,2,4-triazol-4-yl)-benzamide] | 120 nM | 109 °C |
| Cc1ccc(-c2cc(C(=O)NC(C)(C)C)cc(-n3cnnc3C(C)C)c2)cc1 [Example 33, N-tert-Butyl-3-(4-methyl-phenyl)-5-(3-propan-2-yl-1,2,4-triazol-4-yl)-benzamide] | 100 nM | 100 °C |
| CC(C)c1nncn1-c1cc(C(=O)NC(C)(C)C)cc(-c2ccc(C#N)cc2)c1 [Example 34, N-tert-Butyl-3-(4-cyano-phenyl)-5-(3-propan-2-yl-1,2,4-triazol-4-yl)-benzamide] | 220 nM | 290 °C |
| CC(C)c1nncn1-c1cc(C(=O)NC(C)(C)C)cc(-c2ccc(C3CC3)cc2)c1 [Example 35, N-tert-Butyl-3-(4-cyclopropyl-phenyl)-5-(3-propan-2-yl-1,2,4-triazol-4-yl)-benzamide] | 130 nM | 120 °C |
| CC(C)(NC(=O)c1cc(-c2ccc(Cl)cc2)cc(-n2cnnc2CO)c1)C1CC1 [Example 37, 3-(4-Chlorophenyl)-N-(2-cyclopropyl-propan-2-yl)-5-[3-(hydroxymethyl)-1,2,4-triazol-4-yl]-benzamide] | 150 nM | 120 °C |
